In ChEMBL document CHEMBL1150938, “Recent natural products based drug development: a pharmaceutical industry perspective” (J Nat Prod, 1998):

Columns and labels:
[1] = system: Homo sapiens; experiment: Inhibition of fractional cholesterol absorption in normolipidemic human at 300 mg administered twice daily for 2 weeks; type: functional; set-up: scale not given: the % may be the effect or the level left
[2] = system: Homo sapiens; experiment: Reduction in serum LDL-cholesterol level in normolipidemic human at 300 mg administered twice daily for 2 weeks; type: functional; set-up: scale not given: the % may be the effect or the level left

C[C@@H]1CC[C@@]2(OC1)O[C@H]1C[C@H]3[C@@H]4CC[C@H]5C[C@@H](O[C@@H]6O[C@H](CO)[C@@H](O[C@@H]7O[C@H](CO)[C@@H](O)[C@H](O)[C@H]7O)[C@H](O)[C@H]6O)CC[C@]5(C)[C@H]4C(=O)C[C@]3(C)[C@H]1[C@@H]2C [PAMAQUESIDE]
Activity [1]: 35%
Activity [2]: 10%
